Data on 7 compounds can be found in patent publication US4472424A, “Esters of 2-thenoylmercaptopropionylglycine with substituted hydroxybenzenes, process for their preparation and pharmaceutical compositions containing same” (Sigma-Tau Industrie Farmaceutiche Riunite S.p.A., priority 1981, dated 1984).

Data set [1] can be described thus: Mucolytic activity in vitro (thromboelastograph, Morandini et al.). On the set-up: species or system human. Particulars: 1 ml of a 10% solution of test compound. Here is the method: The tests were carried out in vitro by using the method disclosed by Morandini et al. (Lotta contro 1a tubercolosi 47, n. 4, 1977). A thromboelastograph was used to follow the variations induced by the compounds of general formula (I) and acetylcysteine on the rheological properties of human sputum.

The subject of a further data set is bronchial secretion. Description: Expectorant activity (bronchial secretion in anesthetized rabbits, Perry et al.). Type of data set: in vivo, rabbit. Particulars: 20 to 40 mg. On the procedure: The tests were carried out on male rabbits, weighing 2-3 Kg, anesthetized with ethyl urethane, by following the method disclosed by Perry et al. (J. Pharm. Exp. Ther. 73, 65, 1941).
Each cannula was connected to a feeding device which delivered a steady flow-rate of pre-heated air (36°-38° C.) at constant humidity (80%). At the lower end of each cannula, a graduated cylinder was fitted, wherein the bronchial secretion was collected. All of the animals breathed spontaneously and consequently they self-regulated the air intake suitable for normal respiration. After an hour following cannula insertion, the animals were administered orally (by stomach tube) the compounds of general formula (I) dissolved in distilled water at doses comprised between 20 and 40 mg. Each dose of drug was administered to 5 animals. The control animals (8) were given water only. The amount of secretion was determined after 1, 2 and 4 hours from administration.

A short description of data set [2]: Acute toxicity (LD50, Weil method), e.p. administration in mouse. Particulars: in vivo, ip, Weil method N = 4 K = 4. The text has this:
LD50 of the compounds of formula (I) assessed with the Weil method ("Tables for convenient calculation of median effective dose (LD50 or ED 50) and instructions in their use", Biometrics, 249-253, 1952), by e.p. administration in mouse is shown in Table 1.

In data set [3] the test system is cough-inducing irritation. Description: Antitussive activity (citric acid aerosol induced cough). Type of data set: in vivo, guinea pig. Particulars: 200 mg/Kg orally, one hour before test; for Number of coughs after treatment: 10 minutes exposure to 10% citric acid aerosol; for % Inhibition of coughs: before vs. after treatment. Here is the method: The cough-inducing irritation was studied in guinea pigs by exposing the experimental animals to an environment wherein a 10% citric acid solution was atomized by an aerosol device kept at a steady pressure with compressed air. The experimental animals were placed in a glass-walled chamber which was connected to an electrical recording apparatus suitable for counting coughs.
The period of exposure to the cough-inducing aerosol was 10 minutes. The experimental animals were subjected to a control test seven days before they were orally administered 200 mg/Kg of the compounds.

[4] abbreviates: 1 hour after oral administration.
The mark [5] stands for this setting: 2 hours after oral administration.
The mark [6] stands for this setting: 4 hours after oral administration.

As for `CCOC(=O)c1ccccc1OC(=O)CNC(=O)C(C)SC(=O)c1cccs1` (centres unmarked) [(4), ethyl o-(2-thenoylmercaptopropionylglyciloxy) benzoate], the “Percentage drop ± s.e. of the tracing versus maximum peak (mucolytic activity index)” value in data set [1] (dilution 1/30) is reported as 82%; in data set [1] (dilution 1/60), 60%. The “Percentage variations ± s.e. of bronchial secretion versus basal values” with bronchial secretion (setting [4]) is given as “+0.8 ± 0.03%”; with bronchial secretion (setting [5]), “+1.9 ± 0.06%”; in the data set on bronchial secretion (setting [6]), “+3.0 ± 0.04%”. The LD50 (in general, the dose expected to kill half of the subjects tested) in data set [2] amounted to 2150 mg/kg. Further, the “Number of coughs after treatment” value in data set [3] is 30 coughs. For the same compound, the “% Inhibition of coughs” value in data set [3] came out at 52%.

`CCCCOC(=O)c1ccccc1OC(=O)CNC(=O)C(C)SC(=O)c1cccs1` (centres unmarked) [(6), butyl o-(2-thenoylmercaptopropionylglyciloxy) benzoate]: the figures for the “Percentage drop ± s.e. of the tracing versus maximum peak (mucolytic activity index)” value in data set [1] (dilution 1/30) and in data set [1] (dilution 1/60) were 75% and 55%, respectively. The “Percentage variations ± s.e. of bronchial secretion versus basal values” in the data set on bronchial secretion (setting [4]) is listed as “+0.5 ± 0.04%”; with bronchial secretion (setting [5]), “+1.0 ± 0.06%”; in the data set with bronchial secretion (setting [6]), “+1.9 ± 0.04%”. This compound gave a median lethal dose (LD50) in data set [2] of 1800 mg/kg. In data set [3], the “Number of coughs after treatment” value is given as 25 coughs. The “% Inhibition of coughs” value in data set [3] worked out at 49%.

Consider `CC(=O)N[C@@H](CS)C(=O)O` [Acetylcysteine, acetylcysteine, reference compound], for which the “Percentage drop ± s.e. of the tracing versus maximum peak (mucolytic activity index)” value in data set [1] (dilution 1/30) is given as 75%; in data set [1] (dilution 1/60) it was 22%.

With `COC(=O)c1ccccc1OC(=O)CNC(=O)C(C)SC(=O)c1cccs1` (centres unmarked) [(3), methyl o-(2-thenoylmercaptopropionylglyciloxy) benzoate], the “Percentage drop ± s.e. of the tracing versus maximum peak (mucolytic activity index)” value in data set [1] (dilution 1/30) came out at 85%; in data set [1] (dilution 1/60) it was 65%. Further, the figures for the “Percentage variations ± s.e. of bronchial secretion versus basal values” in the data set with bronchial secretion (setting [4]), with bronchial secretion (setting [5]) and in the data set on bronchial secretion (setting [6]) were “+0.3 ± 0.05%”, “+0.9 ± 0.05%” and “+1.4 ± 0.08%”, respectively. The LD50 in data set [2] stood at 1780 mg/kg. In addition, in data set [3], the “Number of coughs after treatment” value stood at 31 coughs. Also, the “% Inhibition of coughs” value in data set [3] is given as 49%.

For `CC(=O)Nc1ccc(OC(=O)CNC(=O)C(C)SC(=O)c2cccs2)cc1` (centres unmarked) [(2), p-(2-thenoylmercaptopropionylglyciloxy) acetamido benzene], the “Percentage drop ± s.e. of the tracing versus maximum peak (mucolytic activity index)” value in data set [1] (dilution 1/30) turned out to be 86%; in data set [1] (dilution 1/60) it was 65%. The entries for the “Percentage variations ± s.e. of bronchial secretion versus basal values” in the data set with bronchial secretion (setting [4]), with bronchial secretion (setting [5]) and in the data set on bronchial secretion (setting [6]) were “+0.8 ± 0.03%”, “+1.2 ± 0.04%” and “+2.5 ± 0.07%”, respectively. The compound also gave an LD50 in data set [2] of 1930 mg/kg. The “Number of coughs after treatment” value in data set [3] amounted to 30 coughs. Moreover, the “% Inhibition of coughs” value in data set [3] worked out at 46%.

On to `CCCOC(=O)c1ccccc1OC(=O)CNC(=O)C(C)SC(=O)c1cccs1` (centres unmarked) [(5), propyl o-(2-thenoylmercaptopropionylglyciloxy) benzoate], for which the “Percentage drop ± s.e. of the tracing versus maximum peak (mucolytic activity index)” value in data set [1] (dilution 1/30) is 78%; in data set [1] (dilution 1/60), 57%. The “Percentage variations ± s.e. of bronchial secretion versus basal values” with bronchial secretion (setting [4]) is reported as “+0.9 ± 0.06%”; in the data set on bronchial secretion (setting [5]), “+1.7 ± 0.05%”; in the data set on bronchial secretion (setting [6]) it was “+3.2 ± 0.06%”. The same compound returned an LD50 in data set [2] of 2080 mg/kg. Moreover, the “Number of coughs after treatment” value in data set [3] stood at 28 coughs. Also, in data set [3], the “% Inhibition of coughs” value is on record as 49%.

With `CCCOC(=O)c1ccc(OC(=O)CNC(=O)C(C)SC(=O)c2cccs2)cc1` (centres unmarked) [(1), propyl p-(2-thenoylmercaptopropionylglyciloxy) benzoate], the “Percentage drop ± s.e. of the tracing versus maximum peak (mucolytic activity index)” value in data set [1] (dilution 1/30) stood at 75%; in data set [1] (dilution 1/60), 60%. Besides, the “Percentage variations ± s.e. of bronchial secretion versus basal values” in the data set with bronchial secretion (setting [4]) is “+0.9 ± 0.05%”; in the data set on bronchial secretion (setting [5]), “+2.1 ± 0.01%”; in the data set on bronchial secretion (setting [6]), “+3.8 ± 0.06%”. The compound further returned an LD50 in data set [2] of 1580 mg/kg. Further, the “Number of coughs after treatment” value in data set [3] is given as 39 coughs. Moreover, the “% Inhibition of coughs” value in data set [3] was determined as 37%.
